For 28 compounds, EC50 results are on record in US20250368628A1, “METHODS AND COMPOUNDS FOR MODULATING INHERITED GENETIC DISEASES” (Design Therapeutics, Inc., priority 2022, published 2025).

In general, EC50 refers to the concentration that produces a half-maximal response.

For test [1], the system named is Myotonic Dystrophy 1 affected patient fibroblasts (Coriel GM04602; 1600 CTG repeats). As to the kind of experiment: DM1 foci reduction assay (EC50 assay; CAG10-Cy3 FISH, foci per nucleus). It counts as cell-based. The following applies: Homo sapiens, Fibroblast; DM1 patient fibroblasts, 48 h treatment, foci per nucleus; read-out: DM1 EC50, 48 h. In short, it runs like this:
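GM04602 DM1 patient fibroblasts (1600 CTG repeats) seeded 24 h, then treated 48 h at 37 °C with an 8-point 1:3 dose series from 3 μM. Cells PFA-fixed, ethanol-permeabilized and hybridized overnight with 5 nM CAG10-Cy3 probe, DAPI counterstained. Imaged at 20×, 4 fields per well, as average foci per nucleus.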

The subject of the next test is F35T cells. The test can be described thus: Foci reduction in FECD (CAG10-Cy3 FISH, foci per nucleus). It counts as cell-based. The following applies: F35T cells, 48 h treatment, foci per nucleus; read-out: FECD EC50, 48 h. In short, it runs like this:
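F35T cells, 5000 per well, were treated for 48 h at 37 °C, 5% CO2 in an 8-point dose response. Cells were then fixed in 4% PFA, permeabilized in 70% ethanol and hybridized overnight at 37 °C with a CAG10-Cy3 probe in 30% formamide/2×SSC. After DAPI staining, imaging gave foci per nucleus.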

Structures are written as SMILES. Some results are limits rather than exact numbers.

As to `CCCNC(=O)CCNC(=O)c1nc(NC(=O)c2cc(NC(=O)CCNC(=O)c3nc(NC(=O)CCCNC(=O)c4cc(NC(=O)c5nc(NC(=O)CCNC(=O)c6cc(NC(=O)c7nccn7C)cn6C)cn5C)cn4CCCCCN)cn3C)cn2C)cn1C` [Compound B-286], the 50% effective concentration (EC50) is 0.1 to 0.5 µM in test [1] and below 0.1 µM in the test on F35T cells.
The corresponding values for `CC(=O)NCCCCCCn1cc(NC(=O)c2nc(NC(=O)CCNC(=O)c3cc(NC(=O)c4nccn4C)cn3C)cn2C)cc1C(=O)NCCCC(=O)Nc1cn(C)c(C(=O)NCCC(=O)Nc2cc(C(=O)Nc3cn(C)c(C(=O)NCCC(=O)N4CCC(C#CC#CC5CCN(C(C)=O)CC5)CC4)n3)n(C)c2)n1` [Compound B-293] are 0.5 to 1 µM and 0.1 to 0.5 µM.
As to `CCCNC(=O)CCNC(=O)c1nc(NC(=O)c2cc(NC(=O)CCNC(=O)c3nc(NC(=O)CCCNC(=O)c4cc(NC(=O)c5nc(NC(=O)CCNC(=O)c6cc(NC(=O)c7nccn7C)cn6C)cn5C)cn4CCOCCN)cn3C)cn2C)cn1C` [Compound B-295], the EC50 (in test [1]; with F35T cells) was 0.1 to 0.5 µM throughout.
In the case of `CC(=O)N1CCC(C#CC#CC2CCN(C(=O)CCNC(=O)c3nc(NC(=O)c4cc(NC(=O)CCNC(=O)c5nc(NC(=O)CCCNC(=O)c6cc(NC(=O)c7nc(NC(=O)CCNC(=O)c8cc(NC(=O)c9nccn9C)cn8C)cn7C)cn6CCOCCN)cn5C)cn4C)cn3C)CC2)CC1` [Compound B-296], the EC50 (in test [1]; in the test with F35T cells) was below 0.1 µM each time.
Take `Cn1cc(NC(=O)c2nccn2C)cc1C(=O)NCCC(=O)Nc1cn(C)c(C(=O)Nc2cc(C(=O)NCCCC(=O)Nc3cn(C)c(C(=O)NCCC(=O)Nc4cc(C(=O)Nc5cn(C)c(C(=O)NCCC(=O)N6CCC(C#CC#CC7CCNCC7)CC6)n5)n(C)c4)n3)n(CCOCCN)c2)n1` [Compound B-297]: the EC50 in test [1] is above 1 µM; in the test with F35T cells, 0.1 to 0.5 µM.
As to `CCCNC(=O)CCNC(=O)c1nc(NC(=O)c2cc(NC(=O)CCNC(=O)c3nc(NC(=O)CCCNC(=O)c4cc(NC(=O)c5nc(NC(=O)CCNC(=O)c6cc(NC(=O)c7nccn7C)cn6C)cn5C)cn4CCOCCNC(C)=O)cn3C)cn2C)cn1C` [Compound B-298], the concentration for a half-maximal effect (EC50) (in test [1]; in the test on F35T cells) was 0.1 to 0.5 µM throughout.
For the compound `CC(=O)NCCOCCn1cc(NC(=O)c2nc(NC(=O)CCNC(=O)c3cc(NC(=O)c4nccn4C)cn3C)cn2C)cc1C(=O)NCCCC(=O)Nc1cn(C)c(C(=O)NCCC(=O)Nc2cc(C(=O)Nc3cn(C)c(C(=O)NCCC(=O)N4CCC(C#CC#CC5CCN(C(C)=O)CC5)CC4)n3)n(C)c2)n1` [Compound B-299], the figures for the EC50 (in test [1]; with F35T cells) were 0.1 to 0.5 µM and below 0.1 µM, respectively.
The corresponding values for `CC(=O)NCCOCCn1cc(NC(=O)c2nc(NC(=O)CCNC(=O)c3cc(NC(=O)c4nccn4C)cn3C)cn2C)cc1C(=O)NCCCC(=O)Nc1cn(C)c(C(=O)NCCC(=O)Nc2cc(C(=O)Nc3cn(C)c(C(=O)NCCC(=O)N4CCC(C#CC#CC5CCNCC5)CC4)n3)n(C)c2)n1` [Compound B-300] are below 0.1 µM and below 0.1 µM.
Consider `CCCNC(=O)CCNC(=O)c1nc(NC(=O)c2cc(NC(=O)CCNC(=O)c3nc(NC(=O)CCCNC(=O)c4cc(NC(=O)c5nc(NC(=O)CCNC(=O)c6cc(NC(=O)c7nccn7C)cn6C)cn5C)cn4CCCOCCN)cn3C)cn2C)cn1C` [Compound B-301], for which the EC50 in test [1] is 0.1 to 0.5 µM; with F35T cells, below 0.1 µM.
`CC(=O)N1CCC(C#CC#CC2CCN(C(=O)CCNC(=O)c3nc(NC(=O)c4cc(NC(=O)CCNC(=O)c5nc(NC(=O)CCCNC(=O)c6cc(NC(=O)c7nc(NC(=O)CCNC(=O)c8cc(NC(=O)c9nccn9C)cn8C)cn7C)cn6CCCOCCN)cn5C)cn4C)cn3C)CC2)CC1` [Compound B-302]: the EC50 (in test [1]; with F35T cells) was below 0.1 µM in each case.
Regarding `Cn1cc(NC(=O)c2nccn2C)cc1C(=O)NCCC(=O)Nc1cn(C)c(C(=O)Nc2cc(C(=O)NCCCC(=O)Nc3cn(C)c(C(=O)NCCC(=O)Nc4cc(C(=O)Nc5cn(C)c(C(=O)NCCC(=O)N6CCC(C#CC#CC7CCNCC7)CC6)n5)n(C)c4)n3)n(CCCOCCN)c2)n1` [Compound B-303], the results for the EC50 (in test [1]; with F35T cells) were 0.5 to 1 µM and 0.1 to 0.5 µM, respectively.
The corresponding values for `CCCNC(=O)CCNC(=O)c1nc(NC(=O)c2cc(NC(=O)CCNC(=O)c3nc(NC(=O)CCCNC(=O)c4cc(NC(=O)c5nc(NC(=O)CCNC(=O)c6cc(NC(=O)c7nccn7C)cn6C)cn5C)cn4CCCOCCNC(C)=O)cn3C)cn2C)cn1C` [Compound B-304] are below 0.1 µM and below 0.1 µM.
The corresponding values for `CC(=O)NCCOCCCn1cc(NC(=O)c2nc(NC(=O)CCNC(=O)c3cc(NC(=O)c4nccn4C)cn3C)cn2C)cc1C(=O)NCCCC(=O)Nc1cn(C)c(C(=O)NCCC(=O)Nc2cc(C(=O)Nc3cn(C)c(C(=O)NCCC(=O)N4CCC(C#CC#CC5CCN(C(C)=O)CC5)CC4)n3)n(C)c2)n1` [Compound B-305] are 0.1 to 0.5 µM and below 0.1 µM.
The corresponding values for `CC(=O)NCCOCCCn1cc(NC(=O)c2nc(NC(=O)CCNC(=O)c3cc(NC(=O)c4nccn4C)cn3C)cn2C)cc1C(=O)NCCCC(=O)Nc1cn(C)c(C(=O)NCCC(=O)Nc2cc(C(=O)Nc3cn(C)c(C(=O)NCCC(=O)N4CCC(C#CC#CC5CCNCC5)CC4)n3)n(C)c2)n1` [Compound B-306] are below 0.1 µM and below 0.1 µM.
`Cn1cc(NC(=O)c2nc(NC(=O)CCNC(=O)c3cc(NC(=O)c4nccn4C)cn3C)cn2C)cc1C(=O)NCCCC(=O)Nc1cn(C)c(C(=O)NCCC(=O)Nc2cc(C(=O)Nc3cn(C)c(C(=O)NCCC(N)=O)n3)n(C)c2)n1` [Compound B-307]: the concentration giving a half-maximal response (EC50) in test [1] is 0.1 to 0.5 µM; with F35T cells, below 0.1 µM.
On the same counts, the results for `Cn1cc(NC(=O)c2nc(NC(=O)CCNC(=O)c3cc(NC(=O)c4nccn4C)cn3C)cn2C)cc1C(=O)NCCCC(=O)Nc1cn(C)c(C(=O)NCCC(=O)Nc2cc(C(=O)Nc3cn(C)c(C(N)=O)n3)n(C)c2)n1` [Compound B-308] are 0.1 to 0.5 µM and below 0.1 µM.
As for `CNC(=O)CCNC(=O)c1nc(NC(=O)c2cc(NC(=O)CCNC(=O)c3nc(NC(=O)CCCNC(=O)c4cc(NC(=O)c5nc(NC(=O)CCNC(=O)c6cc(NC(=O)c7nccn7C)cn6C)cn5C)cn4C)cn3C)cn2C)cn1C` [Compound B-309], the values for the EC50 (in test [1]; with F35T cells) were 0.5 to 1 µM and below 0.1 µM, respectively.
The corresponding values for `CNC(=O)c1nc(NC(=O)c2cc(NC(=O)CCNC(=O)c3nc(NC(=O)CCCNC(=O)c4cc(NC(=O)c5nc(NC(=O)CCNC(=O)c6cc(NC(=O)c7nccn7C)cn6C)cn5C)cn4C)cn3C)cn2C)cn1C` [Compound B-310] are below 0.1 µM and below 0.1 µM.
As for `CCNC(=O)CCNC(=O)c1nc(NC(=O)c2cc(NC(=O)CCNC(=O)c3nc(NC(=O)CCCNC(=O)c4cc(NC(=O)c5nc(NC(=O)CCNC(=O)c6cc(NC(=O)c7nccn7C)cn6C)cn5C)cn4C)cn3C)cn2C)cn1C` [Compound B-311], the results for the 50% effective concentration (EC50) (in test [1]; in the test with F35T cells) were 0.1 to 0.5 µM and below 0.1 µM, respectively.
The corresponding values for `CCNC(=O)c1nc(NC(=O)c2cc(NC(=O)CCNC(=O)c3nc(NC(=O)CCCNC(=O)c4cc(NC(=O)c5nc(NC(=O)CCNC(=O)c6cc(NC(=O)c7nccn7C)cn6C)cn5C)cn4C)cn3C)cn2C)cn1C` [Compound B-312] are below 0.1 µM and below 0.1 µM.
The corresponding values for `CN(C)C(=O)CCNC(=O)c1nc(NC(=O)c2cc(NC(=O)CCNC(=O)c3nc(NC(=O)CCCNC(=O)c4cc(NC(=O)c5nc(NC(=O)CCNC(=O)c6cc(NC(=O)c7nccn7C)cn6C)cn5C)cn4C)cn3C)cn2C)cn1C` [Compound B-313] are below 0.1 µM and below 0.1 µM.
Regarding `CCCNC(=O)CCNC(=O)c1nc(NC(=O)c2cc(NC(=O)CCNC(=O)c3nc(NC(=O)CCNC(=O)c4cc(NC(=O)c5nc(NC(=O)CCNC(=O)c6cc(NC(=O)c7nccn7C)cn6C)cn5C)cn4C)cn3C)cn2C)cn1C` [Compound B-315], the concentration for a half-maximal effect (EC50) (in test [1]; in the test with F35T cells) was above 1 µM each time.
`CCCNC(=O)CCNC(=O)c1nc(NC(=O)c2cc(NC(=O)CCNC(=O)c3nc(NC(=O)CCCNC(=O)c4cc(NC(=O)c5nc(NC(=O)CCNC(=O)c6cc(NC(=O)c7nccn7C)cn6C)cn5C)cn4CC)cn3C)cn2C)cn1C` [Compound B-318]: the EC50 was 0.1 to 0.5 µM in test [1] and below 0.1 µM with F35T cells.
Take `CCCNC(=O)CCNC(=O)c1nc(NC(=O)c2cc(NC(=O)CCNC(=O)c3nc(NC(=O)CCCNC(=O)c4cc(NC(=O)c5nc(NC(=O)CCNC(=O)c6cc(NC(=O)c7nccn7C)cn6C)cn5C)cn4C(C)C)cn3C)cn2C)cn1C` [Compound B-319]: the EC50 in test [1] was 0.1 to 0.5 µM; with F35T cells, below 0.1 µM.
On the same counts, the results for `CCCNC(=O)CCNC(=O)c1nc(NC(=O)c2cc(NC(=O)CCNC(=O)c3nc(NC(=O)CCCNC(=O)c4cc(NC(=O)c5nc(NC(=O)CCNC(=O)c6cc(NC(=O)c7nccn7C)cn6C)cn5C)cn4CCC)cn3C)cn2C)cn1C` [Compound B-320] are below 0.1 µM and below 0.1 µM.
As for `CCCCn1cc(NC(=O)c2nc(NC(=O)CCNC(=O)c3cc(NC(=O)c4nccn4C)cn3C)cn2C)cc1C(=O)NCCCC(=O)Nc1cn(C)c(C(=O)NCCC(=O)Nc2cc(C(=O)Nc3cn(C)c(C(=O)NCCC(=O)NCCC)n3)n(C)c2)n1` [Compound B-321], the EC50 (in test [1]; in the test with F35T cells) was below 0.1 µM in each case.
For `CCCCCn1cc(NC(=O)c2nc(NC(=O)CCNC(=O)c3cc(NC(=O)c4nccn4C)cn3C)cn2C)cc1C(=O)NCCCC(=O)Nc1cn(C)c(C(=O)NCCC(=O)Nc2cc(C(=O)Nc3cn(C)c(C(=O)NCCC(=O)NCCC)n3)n(C)c2)n1` [Compound B-322], the EC50 in test [1] is below 0.1 µM; in the test with F35T cells, 0.1 to 0.5 µM.
For the compound `CCCCCCn1cc(NC(=O)c2nc(NC(=O)CCNC(=O)c3cc(NC(=O)c4nccn4C)cn3C)cn2C)cc1C(=O)NCCCC(=O)Nc1cn(C)c(C(=O)NCCC(=O)Nc2cc(C(=O)Nc3cn(C)c(C(=O)NCCC(=O)NCCC)n3)n(C)c2)n1` [Compound B-323], the EC50 (in test [1]; in the test on F35T cells) was below 0.1 µM throughout.
